According to patent US20160237160A1, “ANTI-TWEAKR ANTIBODIES AND USES THEREOF” (BAYER PHARMA AKTIENGESELLSCHAFT, priority 2013, published 2016):

Experiments:
Experiment in all cases: Xenograft anti-tumor efficacy
[1] = test system: Ku-19-19 xenograft (bladder cancer); type: in vivo, mice; settings: final tumor weight, TPP-2090 10 mg/kg twice weekly for 4 weeks
Description: (§1) After tumor growth to a size of approximately 40 mm^2 mice were randomized into control and treatment groups with a respective group size of n=8-10. Mice were treated with various doses of anti-TWEAKR antibodies diluted in PBS by intravenous injection (i.v.) into the tail vein with a twice per week schedule (q4dx3: applications twice per week, three applications in total; q4dx8: applications twice per week, eight applications in total). Combination therapy partners such as Regorafenib (10 mg/kg daily, per os) and the PI3K-inhibitor 1 (10 mg/kg, BID, 2d on, 5d off (applications twice daily on two consecutive days, followed by five days without treatment), i.v.) were diluted in their respective formulations whereas the standard of care therapies Irinotecan (5 mg/kg, 4d on, 3d off (applications once daily on four consecutive days followed by three days without treatment) i.v.) and Paclitaxel (16 mg/kg, q7dx4 (applications once per week, four applications in total), i.v.) were diluted in 0.9% NaCl. Animals injected with PBS served as the control (vehicle) group. The applied volume of the compounds was 5 ml/kg body weight per mouse.
(§2) Tumor growth was monitored 2-3 times per week by caliper measurement (length×width in mm) as well as body weight (in g). […]

[2] = test system: BXF1228 patient-derived bladder cancer model; type: in vivo, mice; settings: final tumor weight, TPP-2090 10 mg/kg twice weekly for 4 weeks
[3] = test system: SCaBER xenograft (bladder cancer), NMRI nude mice; type: in vivo; settings: final tumor weight, TPP-2090 10 mg/kg twice weekly for 4 weeks
[4] = test system: LoVo xenograft (colorectal cancer); type: in vivo, mice; settings: tumor weight, TPP-2090 10 mg/kg twice weekly for 4 weeks
Description: as §1
(§3) Tumor growth was monitored 2-3 times per week by caliper measurement (length×width in mm) as well as body weight (in g). At the end of study tumors were dissected, weighted and used for the calculation of tumor-to-control (T/C) ratios (mean tumor weight of treated animals divided by mean tumor weight of control/vehicle animals). […] 2×10^6 tumor cells in 100% Matrigel were s.c. inoculated in female nude mice. After 7d established tumors with a size of about 40 mm^2 were treated with 0.3 mg/kg, 1 mg/kg and 3 mg/kg of antibodies (i.v., q4dx3: applications twice per week, three applications in total).
(§4) Animal studies were conducted as described in example 8 for further human colorectal cancer tumor cell lines Colo205 and LoVo and for further human colorectal cancer patient-derived models Co7553, Co5896, Co5676, Co5841, CXF 1103 and CXF 533. […] The formulation of regorafenib is described in example 8.

[5] = test system: Colo205 xenograft (colorectal cancer); type: in vivo, mice; settings: tumor weight, TPP-2090 10 mg/kg twice weekly for 4 weeks
Description: as §1, §3, §4

[6] = test system: Co5896 patient-derived colorectal cancer model; type: in vivo, mice; settings: tumor weight, TPP-2090 10 mg/kg twice weekly for 4 weeks
Description: as §1, §3, §4

[7] = test system: BXF1352 patient-derived bladder cancer model; type: in vivo, mice; settings: final tumor weight, TPP-2090 10 mg/kg twice weekly for 4 weeks
Description: as §1, §2

| SMILES | T/C [1] | T/C [2] | T/C [3] | Final T/C [4] | Final T/C [5] | Final T/C [6] | T/C [7] |
| --- | --- | --- | --- | --- | --- | --- | --- |
| Nc1ccn([C@@H]2O[C@H](CO)[C@@H](O)C2(F)F)c(=O)n1 [Gemcitabine, gemcitabine, reference compound] | 0.07 | 0.93 | 0.85 |  |  |  |  |
| CNC(=O)c1cc(Oc2ccc(NC(=O)Nc3ccc(Cl)c(C(F)(F)F)c3)c(F)c2)ccn1 [Regorafenib] |  |  |  | 0.63 | 0.42 | 0.67 |  |
| N.N.[Cl][Pt][Cl] [Oxaliplatin/Cisplatin, cisplatin, reference compound] |  | 0.84 | 1.22 |  |  |  | 0.85 |
